Measured values reported in US20070191324A1, “Methods for treatment or prophylaxis of aldosterone-mediated pathogenic effects in a subject using an epoxy-steroidal aldosterone antagonist” (priority 1999, published 2007).
Where two headings read alike, the source gives them in different places. Each block holds one molecule with its values, some of them ahead of it.

What was measured:
[1] = test system: patients with mild-to-moderate hypertension; assay: Eplerenone versus enalapril in essential hypertension, 12-month titration-to-effect (Example D-3); type: in vivo, human
Method: The study design is illustrated in FIG. D-6. Patients with mild-to-moderate hypertension (diastolic blood pressure [DBP]≧95 mmHg and <110 mmHg) were randomized to receive initially EPL 50 mg QD (n=253) or ENAL 10 mg QD (n=246). If DBP ≧90 mmHg at Weeks 4, 8, 12, 16, or 20, the dose of study medication was up-titrated incrementally to EPL 100 mg and 200 mg QD, or ENAL 20 mg and 40 mg QD. […] At 24 wks and 12 months, changes in BP, RAAS hormone profile, urinary albumin excretion (urinary albumin: creatinine ratio [UACR]), laboratory tests, safety, and adverse events (AEs) were assessed.

[2] = test system: diabetic type 2 patients with hypertension and microalbuminuria; assay: Eplerenone, enalapril and combination in diabetic hypertensives with microalbuminuria, 24 weeks (Examples A-18, D-7); type: in vivo, human
[3] = test system: patients with hypertension and left ventricular hypertrophy; assay: Eplerenone, enalapril and combination in left ventricular hypertrophy, 9 months (Examples A-15, D-4); type: in vivo, human
Description: Table […] illustrates forth the above-described dosing scheme. […] Additional laboratory assessments of blood for clinical safety will be done monthly. Routine urinalysis will be done every three months. […] A blood sample for genotyping will be collected at Week 0. At screening and at Month 9, a 12-lead ECG and physical examination will be done. […] In case of early termination, an MRI and blood sample for TSH will be done for those patients who have received double-blind treatment for at least three months. At Weeks 0, 12 and Months 6 and 9, pharmacoeconomic data will be collected on all patients. The primary measure of efficacy is the change from baseline in LVM, as assessed by MRI, in the eplerenone group versus the enalapril group. […] Secondary measures of efficacy will be the following: […] (3) aortic compliance and ventricular filling parameters; and (4) special studies (PIIINP, microalbuminuria, PAI, and tPA). Additionally, the long-term safety and tolerability of the three treatment groups will be compared. […] The study design is illustrated in FIG. D-10. […] Left ventricular mass (LVM) (assayed by MRI), BP, collagen turnover, and tolerability were assessed at the 9-month endpoint.

[4] = test system: patients with low-renin hypertension; assay: Eplerenone versus losartan in low-renin hypertension, 16 weeks (Examples A-16, D-5); type: in vivo, human
Description: Patients will continue on therapy until Week 16. Table […] illustrates the above-described dosing scheme. […] Plasma renin will be determined at screening; serum aldosterone, plasma renin, and plasma cortisol will be determined at Weeks 0, 8, and 16. […] A 12-lead electrocardiogram will be done at Weeks 0 and 16. Physical examinations will be completed at screening and at Week 16. […] Secondary measures of efficacy will be the following: […] Study design is illustrated in FIG. D-16. […] At Weeks 8 and 16, BP, RAAS hormone profile, and safety were assessed.

[5] = test system: black and white patients with mild-to-moderate hypertension; details: for Active Renin (% change) / ΔDBP / ΔSBP: baseline to Week 16
[6] = test system: captopril-treated saline-drinking SHRSP; assay: Angiotensin II-induced renal damage in captopril-treated saline-drinking SHRSP, Protocol 2 (Example A-8); type: in vivo, rat (SHRSP/A3N)
Method: Animals. Studies were conducted in accordance with institutional guidelines using male SHRSP/A3N (generations F-75 to F-78), n=37, from our local colony. These animals were bred from NIH stock, derived from the SHRSP/A3N substrain described originally by Okamoto and coworkers (Okamoto K et al. Circ. Res. 34 and 35 (suppl I):I-143-I-153.). All animals were housed in a room maintained on a 12:12-h light:dark-cycle and an ambient temperature of 22±1° C. in the Animal Care Facility at New York Medical College. Rats were weaned at 4 weeks of age and allowed free access to Purina Lab Chow 5001 (Ralston Purina, St. Louis, Mo.) and tap water until the initiation of experimental protocols.
SHRSP were placed on Stroke-Prone Rodent Diet (#39-288, Zeigler Bros Inc., Gardners, Pa.) and 1% NaCl drinking solution ad libitum starting at 8.3 weeks of age. […] Animals were handled and weighed daily. Urine samples were collected for the assessment of proteinuria. Systolic blood pressure and heart rate were measured each week. After 2 weeks of treatment, animals were decapitated, trunk blood was collected into chilled EDTA tubes, and the kidneys were removed, blotted dry, and immediately weighed. Coronal sections of kidney were fixed and later processed for light microscopic evaluation.
Assays and Analyses. Systolic blood pressure and heart rate of awake animals were measured by tail-cuff plethysmography using a Natsume KN-210 manometer and tachometer (Peninsula Laboratories Inc., Belmont, Calif.). Rats were warmed at 37° C. for 10 min and allowed to rest quietly in a Lucite chamber before measurement of blood pressure. Measurements of urine volume were made gravimetrically. Urinary protein concentration was determined by the sulfosalicylic acid turbidity method. Plasma aldosterone was measured by radioimmunoassay using ^125I-aldosterone as a tracer (Coat-a Count Aldosterone, Diagnostic Products Co., Los Angeles, Calif.).
Histology. Kidneys were preserved in 10% phosphate-buffered formalin. Coronal sections (2-3 μm) were stained with hematoxylin and eosin and examined by light microscopy in a blinded fashion as previously described (Stier C T et al. J Pharmacol Exp Ther (1992) 260:1410-1415). Glomerular damage was categorized as ischemic or thrombotic. Ischemic lesions were defined as retraction of glomerular capillary tufts with or without appreciable mesangiolysis. Glomerular thrombotic lesions were defined as any one of a combination of the following: segmental to global fibrinoid necrosis, focal thrombosis of glomerular capillaries, swelling and proliferation of intracapillary (endothelial and mesangial) and/or extracapillary cells (crescents), and expansion of reticulated mesangial matrix with or without significant hypercellularity. […] Vascular thrombotic lesions were defined as any one or a combination of the following: mural fibrinoid necrosis, extravasation and fragmentation of red blood cells, and luminal and/or mural thrombosis. Proliferative arteriopathy was characterized by proliferation of markedly swollen myointimal cells with swollen round to ovoid vesicular nuclei surrounded by mucinous extracellular matrix (“onion skinning”) often resulting in nodular thickening. Vascular damage was expressed as the number of arteries and arterioles with lesions per 100 glomeruli. The presence of casts and tubular (ischemic) retraction and simplification was assessed semiquantitatively.
Statistical Analysis. Significant effects with respect to treatment and time were determined by two-way analysis of variance. Data with only one grouping variable were analyzed statistically by Student's unpaired t tests. When more than two groups were compared, one-way analysis of variance was performed followed by the post-hoc Newman-Keul's multiple comparison test. Data were analyzed using version 2.01 of the GraphPad Prism statistical software package (GraphPad Software Inc., San Diego, Calif.). P<0.05 was considered statistically significant.

[7] = test system: patients with mild to moderate hypertension; assay: Eplerenone/HCTZ dose ranging factorial design study (Example D-2); type: in vivo, human; details: eplerenone 25, 50 or 200 mg daily; HCTZ 12.5 or 25 mg daily; 8 weeks
Method: Patients were assessed at weeks 0, 2, 4, and 8. Study assessments at protocol-specified timepoints included blood pressure (BP), heart rate, clinical laboratory analyses, vital signs, physical examinations, 12-lead ECG, and monitoring of adverse events. A total of 614 patients were randomized.

[8] = Week 24, EPL 50-200 mg QD, ENAL 10-40 mg QD titrated
[9] = 9-month endpoint, forced titration
[10] = 9-month endpoint, EPL 200 mg, ENAL 40 mg, EPL 200 mg/ENAL 10 mg
[11] = Week 8 (monotherapy), EPL 100-200 mg QD, LOS 50-100 mg QD
[12] = Week 16, after allowed addition of HCTZ
[13] = captopril 50 mg/kg/d, angiotensin II 25 ng/min, eplerenone 100 mg/kg/d, 2 weeks

patients experiencing coughing ([1]; 12-month study): 6.5% | patients experiencing hyperglycemia ([1]; 12-month study): 2.8% | patients experiencing urinary tract infections (UTI) ([1]; 12-month study): 2.8% | patients withdrawn for hyperkalemia ([2]; 24 weeks): 2 patients | subjects with elevated K+ (≧6.0 mEq/L) ([2]; 24 weeks): 2 subjects
Molecule: CCOC(=O)[C@H](CCc1ccccc1)N[C@@H](C)C(=O)N1CCC[C@H]1C(=O)O [Enalapril, reference compound]
DBP change ([1]; 12 months): −14.1 mmHg | SBP change ([1]; 12 months): −14.8 mmHg | DBP change [1, 8]: −11.3 mmHg | SBP change [1, 8]: −12.7 mmHg | reduction in UACR ([1]; Week 24, patients with baseline UACR ≧30 mg/g): −25.7% | safety and tolerability ([1]; in vivo): safe and well tolerated | patients requiring addition of hydrochlorothiazide (HCTZ) ([2]; EPL 200 mg QD, ENAL 40 mg QD, EPL 200 mg/ENAL 10 mg, 24 weeks): 43/81 | Adjusted mean change ΔDBP (Week 8-baseline) ([2]; Week 8): −11.6 | Adjusted mean change ΔSBP (Week 8-baseline) ([2]; Week 8): −15.4 | Adjusted mean change ΔDBP (Week 24-baseline) ([2]; Week 24): −15.0 | Adjusted mean change ΔSBP (Week 24-baseline) ([2]; Week 24): −20.4 | tolerability ([2]; in vivo): well tolerated | DBP Adjusted mean change [3, 9]: −13.0 mmHg | SBP Adjusted mean change [3, 9]: −22.5 mmHg | decrease from baseline in UACR [3, 10]: −39.1% | decrease from baseline in collagen turnover [3, 10]: −7.3% | patients experiencing coughing ([3]; 9-month study): 14.1% | LVM Adjusted mean change [g (SE)] ([3]; left ventricular mass by MRI, 9-month endpoint, forced titration (EPL 50-200 mg, ENAL 10-40 mg)): −19.7 (3.20) g

Molecule: CCCCc1nc(Cl)c(CO)n1Cc1ccc(-c2ccccc2-c2nn[nH]n2)cc1 [Losartan, reference compound]
cumulative percentage of patients requiring HCTZ add-on therapy ([4]; 16 weeks): 55.6% | increase in active renin levels ([4]; Week 8): +63.8% | increase in serum aldosterone levels ([4]; Week 8): −18.7% | mean change from baseline in DBP [4, 11]: −6.7 mmHg | mean change from baseline in SBP [4, 11]: −10.1 mmHg | increase in active renin levels ([4]; Week 16): +83.3% | increase in serum aldosterone levels ([4]; Week 16): −5.5% | mean change from baseline in DBP [4, 12]: −9.8 mmHg | mean change from baseline in SBP [4, 12]: −15.0 mmHg | Active Renin (% change) ([5]; All Patients): +67.1% | ΔDBP ([5]; All Patients): −6.9 mmHg | ΔSBP ([5]; All Patients): −6.3 mmHg | Active Renin (% change) ([5]; Black Patients): +40.0% | ΔDBP ([5]; Black Patients): −6.0 mmHg | ΔSBP ([5]; Black Patients): −5.3 mmHg | adjusted mean percent change from baseline in UACR ([5]; Week 16, EPL 50-200 mg QD, LOS 50-100 mg QD): −18.2% | Active Renin (% change) ([5]; White Patients): +113.7% | ΔDBP ([5]; White Patients): −8.4 mmHg | safety and tolerability ([5]; human, in vivo): safe and well-tolerated

Molecule: Angiotensin II: Angiotensin II (human type) infused by osmotic minipump (DRVYIHPF; Angiotensin-2; UniProt P01019 25-32, looked up)
Glomerular damage, Ischemic [6, 13]: 13 ± 3 lesions/100 glomeruli | Glomerular damage, Thrombotic [6, 13]: 2 ± 1 lesions/100 glomeruli | Glomerular damage, Total [6, 13]: 15 ± 3 lesions/100 glomeruli | Renal arteriopathy, Proliferative [6, 13]: 1 ± 1 lesions/100 glomeruli | Renal arteriopathy, Thrombotic [6, 13]: 15 lesions/100 glomeruli | Renal arteriopathy, Total [6, 13]: 16 ± 2 lesions/100 glomeruli | plasma aldosterone concentration [6, 13]: 404 ± 160 pg/mL | renal damage ([6]; captopril + angiotensin II 25 ng/min, with eplerenone 100 mg/kg/d or vehicle): 18±4% | proteinuria (urinary protein excretion) ([6]; end of study (2 weeks), captopril 50 mg/kg/d, angiotensin II 25 ng/min s.c., eplerenone 100 mg/kg/d by gavage): 96 ± 13 mg/day

Molecule: C[C@H](CS)C(=O)N1CCC[C@H]1C(=O)O [Captopril]
Glomerular damage, Total [6, 13]: 0 ± 0 lesions/100 glomeruli | Renal arteriopathy, Proliferative [6, 13]: 0 ± 0 lesions/100 glomeruli | Renal arteriopathy, Thrombotic [6, 13]: 0 ± 0 lesions/100 glomeruli | Renal arteriopathy, Total [6, 13]: 0 ± 0 lesions/100 glomeruli | plasma aldosterone concentration [6, 13]: 107 ± 26 pg/mL | tubules with ischemic retraction and simplification [6, 13]: absent

Molecule: NS(=O)(=O)c1cc2c(cc1Cl)NCNS2(=O)=O [HCTZ, reference compound]
DBP, change from Baseline to the Final Visit [7]: dose-dependent decreases in DBP | SBP, change from Baseline to the Final Visit [7]: dose-dependent decreases in SBP
